Source: patent publication US10604523B2, “1-aryl-4-methyl-[1,2,4]triazolo[4,3-a]quinoxaline derivatives” (Janssen Pharmaceutica NV, priority 2011, dated 2020)

How the values were obtained:
[1] = Biodistribution study of [18F]B-23; conditions: normal rats, mean ± SD, n=3
Procedure: The biodistribution study was carried out in male Wistar rats (body weight 320-370 g) at 2 min, 10 min and 30 min post injection (p.i.) (n=3/time point). […] Blood and major organs were collected in tared tubes and weighed. The radioactivity in blood, organs and other body parts was measured using an automated gamma counter. The distribution of radioactivity in different parts of the body at different time points p.i. of the tracer was calculated and expressed as percentage of injected dose (% ID), and as standardized uptake values (SUV) for the selected organs. % ID is calculated as counts per minute (cpm) in organ/total cpm recovered. SUVs are calculated as (radioactivity in cpm in organ/weight of the organ in g)/(total counts recovered/body weight in g). For calculation of total radioactivity in blood, blood mass was assumed to be 7% of the body mass.

[2] = Plasma radiometabolite analysis of [18F]B-23; type: in vivo, rat; conditions: rat plasma, n=1
Procedure: The metabolic stability of the tracer was studied in normal rats by determination of the relative amounts of parent tracer and radiometabolites in plasma and brain at 2 min and 10 min p.i. of the tracer. […] (n=1), blood was collected in lithium heparin containing tubes (4.5 mL LH PST tubes; BD vacutainer, BD, Franklin Lakes, USA) and stored on ice. Brain was dissected and rinsed with saline (decapitation was preferred since it was difficult to have the rat perfused already at 2 min p.i.). For the 10 min timepoint, rats (n=1) were injected with about 37 MBq of tracer and sacrificed at 10 min p.i by administering an overdose of Nembutal (CEVA Sante Animale, 200 mg/kg intraperitoneal). The rats were perfused by injection of saline into the left ventricle until the liver turned pale. During perfusion, blood was collected and stored on ice. Brain was isolated.
For the plasma radiometabolite analysis, the blood was centrifugated for 10 min at 3000 rpm to separate the plasma. A volume of about 0.1 mL of plasma sample was isolated and spiked with about 10 μL of authentic non-radioactive reference material (1 mg/mL) for identification. The plasma was then injected onto an HPLC system consisting of a Chromolith Performance column (C18, 3 mm×100 mm, Merck) that was eluted with mixtures of 0.05 M NaOAc pH 5.5 (solvent A) and acetonitrile (solvent B). The following method was used for the analysis: isocratic elution with 100% A for 4 min at a flow rate of 0.5 mL/min, then linear gradient to 90% B by 14 min at a flow rate of 1 mL/min, and isocratic elution with a mixture of 10% A and 90% B at a flow rate of 1 mL/min until 17 min. After passing through an in-line UV detector (254 nm) and over a 3 in. NaI(Tl) scintillation detector connected to a single channel analyzer (Gabi box, Raytest, Straubenhardt Germany), the HPLC eluate was collected per minute using an automatic fraction collector. The radioactivity in all fractions was measured using an automated gamma counter. The peak corresponding to the intact tracer eluted at ˜11 min. Polar radiometabolite(s) were eluting from 1 to 3 min. Slightly more polar radiometabolites (relatively to the polarity of the intact tracer) were eluting just before the intact tracer. Faster metabolisation is observed in plasma compared to brain. At 2 min p.i., about 70% of the recovered radioactivity was present as intact tracer. Two more polar radiometabolites (M1, M3) were observed of which one (M3) was closely eluting to the intact tracer. At 10 min p.i., the presence of a large amount of a third polar metabolite (M2, also closely eluting to the parent compound) was observed which accounted for about 60% of the recovered radioactivity. At 10 min p.i., only ˜20% of the recovered radioactivity was still present as intact tracer.

[3] = tested on: cAMP and cGMP levels in the rat brain (hippocampus and striatum); assay: Effect of PDE-inhibitors ex-vivo studies in rat: cAMP and cGMP levels in brain; conditions: 10 mg/kg s.c., -1 h
Procedure: Upon arrival, the animals (body weight 210-240 g) were housed in groups of 5 and fed normal chow at libitum.
Compounds and/or solvent were administered either orally, subcutaneously or IV. […] After microwave, the rats were decapitated and the heads cooled immediately with ice cold physiological saline. […] 10 vol (w/v) of 0.1N HCl were added. The tissue was homogenized for 3 min at 30 Hz using a Tissuelyser from Qiagen.
The homogenate was transferred into an Eppendorf tube (1.5 ml) and after centrifugation for 15 min at 1600 g in a pre-cooled (4C) Eppendorf centrifuge, the supernatant was collected and stored at −80° C. until analysis.
The cAMP and cGMP levels were measured in the rat brain (hippocampus and striatum) to establish in vivo target engagement and central pharmacological effect of PDE2 inhibition.

[4] = target: T1, Rat recombinant PDE10A (rPDE10A2) (Rattus norvegicus, UniProt Q9QYJ6); assay: In vitro assay PDE10A (SPA, 3H-cAMP); type: biochemical; conditions: -log IC50 expressed in mol/L; rPDE10A2, 60 nM cAMP
T1 construct: made in house; host or cells: Sf9 insect cells (baculovirus)
T1 sequence (Q9QYJ6 1-794): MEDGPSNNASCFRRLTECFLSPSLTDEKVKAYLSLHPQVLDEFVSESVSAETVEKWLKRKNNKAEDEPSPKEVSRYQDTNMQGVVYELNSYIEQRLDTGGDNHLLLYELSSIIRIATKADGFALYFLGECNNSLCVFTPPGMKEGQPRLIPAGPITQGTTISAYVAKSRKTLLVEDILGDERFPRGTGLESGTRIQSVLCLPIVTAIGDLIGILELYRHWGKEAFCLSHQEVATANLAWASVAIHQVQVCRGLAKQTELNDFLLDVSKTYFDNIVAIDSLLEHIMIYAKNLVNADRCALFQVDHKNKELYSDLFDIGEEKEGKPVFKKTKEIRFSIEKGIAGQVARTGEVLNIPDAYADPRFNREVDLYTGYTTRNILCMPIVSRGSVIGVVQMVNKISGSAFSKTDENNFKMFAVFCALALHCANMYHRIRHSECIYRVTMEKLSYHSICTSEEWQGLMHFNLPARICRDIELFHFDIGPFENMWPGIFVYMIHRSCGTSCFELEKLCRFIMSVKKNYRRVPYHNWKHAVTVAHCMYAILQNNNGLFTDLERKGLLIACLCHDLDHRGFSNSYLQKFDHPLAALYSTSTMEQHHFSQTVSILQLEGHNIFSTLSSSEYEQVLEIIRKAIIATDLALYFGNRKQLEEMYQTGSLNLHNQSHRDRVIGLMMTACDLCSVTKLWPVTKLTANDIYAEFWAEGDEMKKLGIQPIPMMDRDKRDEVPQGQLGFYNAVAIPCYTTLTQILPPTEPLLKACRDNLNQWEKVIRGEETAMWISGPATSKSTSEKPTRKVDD

## Cc1nc2ccc(CN3CCOCC3)cc2n2c(-c3c([18F])cccc3Cl)nnc12 [[18F]B-23, 1-[2-Chloro-6-(^18F)fluorophenyl]-4-methyl-8-(morpholin-4-ylmethyl)[1,2,4]triazolo[4,3-a]quinoxaline]
[1]; 2 min p.i.
  % ID Blood: 6.69 ± 0.4 % ID
  % ID Carcass: 42.54 ± 4.8 % ID
  % ID Cerebellum: 0.096 ± 0.022 % ID
  % ID Cerebrum total: 1.030 ± 0.130 % ID
  % ID Cortex: 0.086 ± 0.017 % ID
  % ID Heart: 0.81 ± 0.0 % ID
  % ID Hippocampus: 0.036 ± 0.002 % ID
  % ID Intestines: 9.51 ± 1.1 % ID
  % ID Kidneys: 4.68 ± 0.7 % ID
  % ID Liver: 30.79 ± 4.6 % ID
  % ID Lungs: 2.27 ± 1.2 % ID
  % ID Rest of cerebrum: 0.809 ± 0.130 % ID
  % ID Spleen + Pancreas: 1.57 ± 0.1 % ID
  % ID Stomach: 2.44 ± 0.3 % ID
  % ID Striatum: 0.098 ± 0.010 % ID
  % ID Urine: 0.25 ± 0.1 % ID
[1]; 10 min p.i.
  % ID Blood: 6.27 ± 0.5 % ID
  % ID Carcass: 37.39 ± 4.9 % ID
  % ID Cerebellum: 0.020 ± 0.002 % ID
  % ID Cerebrum total: 0.212 ± 0.006 % ID
  % ID Cortex: 0.016 ± 0.004 % ID
  % ID Heart: 0.23 ± 0.0 % ID
  % ID Hippocampus: 0.006 ± 0.001 % ID
  % ID Intestines: 10.97 ± 1.5 % ID
  % ID Kidneys: 6.02 ± 1.2 % ID
  % ID Liver: 37.83 ± 3.3 % ID
  % ID Lungs: 0.68 ± 0.1 % ID
  % ID Rest of cerebrum: 0.159 ± 0.006 % ID
  % ID Spleen + Pancreas: 0.42 ± 0.0 % ID
  % ID Stomach: 2.77 ± 0.8 % ID
  % ID Striatum: 0.031 ± 0.005 % ID
  % ID Urine: 0.61 ± 0.5 % ID
[1]; 30 min p.i.
  % ID Blood: 4.10 ± 0.6 % ID
  % ID Carcass: 23.75 ± 1.9 % ID
  % ID Cerebellum: 0.011 ± 0.005 % ID
  % ID Cerebrum total: 0.084 ± 0.026 % ID
  % ID Cortex: 0.006 ± 0.003 % ID
  % ID Heart: 0.12 ± 0.0 % ID
  % ID Hippocampus: 0.003 ± 0.001 % ID
  % ID Intestines: 19.75 ± 5.6 % ID
  % ID Kidneys: 8.24 ± 0.3 % ID
  % ID Liver: 29.30 ± 4.8 % ID
  % ID Lungs: 0.46 ± 0.0 % ID
  % ID Rest of cerebrum: 0.064 ± 0.024 % ID
  % ID Spleen + Pancreas: 0.32 ± 0.1 % ID
  % ID Stomach: 4.81 ± 0.3 % ID
  % ID Striatum: 0.012 ± 0.001 % ID
  % ID Urine: 10.80 ± 1.2 % ID
[2]; 2 min p.i.
  % in plasma Intact tracer: 70%
  % in plasma Polar metabolite M1: 16%
  % in plasma Polar metabolite M3: 14%
[2]; 10 min p.i.
  % in plasma Intact tracer: 18%
  % in plasma Polar metabolite M1: 10%
  % in plasma Polar metabolite M2: 61%
  % in plasma Polar metabolite M3: 12%

## CCCCOc1cncc(-c2nnc3c(C)nc4ccc(CN(C)C)cc4n23)c1 [Compound B-197]
[3]
  Hippocampus cAMP (% of Control): 122 ± 10 % of Control
  Hippocampus cGMP (% of Control): 104 ± 32 % of Control
  Striatum cAMP (% of Control): 89 ± 6 % of Control
  Striatum cGMP (% of Control): 128 ± 26 % of Control
[4]
  PIC50 PDE10: 5.03
